Measurements as given in patent US20240383954A1, “PEPTIDE INHIBITORS OF INTERLEUKIN-23 RECEPTOR AND THEIR USE TO TREAT INFLAMMATORY DISEASES” (Janssen Biotech, Inc., priority 2020, published 2024).
Positions of bridges follow the written chain, without caps; N, C: chain ends. Non-standard residues stand in square brackets, D forms with d. Residues, ends and D or L forms follow the SMILES beside them. *: point of attachment. Trp(7-Me) = Cc1cccc2c(C[C@H](N)C(=O)O)c[nH]c12; 2Nal = N[C@@H](Cc1ccc2ccccc2c1)C(=O)O; AEF = NCCOc1ccc(C[C@H](N)C(=O)O)cc1; Cyclopropanecarbonyl = O=C(C1CC1)*; αMeF = C[C@](N)(Cc1ccccc1)C(=O)O; Pen = CC(C)(S)[C@H](N)C(=O)O; Thp = NC1(C(=O)O)CCOCC1

Molecular target: IL-23R (Homo sapiens, UniProt Q5VWK5)
Experiment: cell-based
Conditions: PBMC pSTAT3 IC50 (nM), PBMCs from healthy donors, IL-23 5 ng/mL, 30 minutes, phosphorylated STAT3
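Note: cryopreserved PBMCs stimulated at 37 °C in 5% CO2, then lysed, with phosphorylated STAT3 quantified in lysates using a phospho-STAT panel kit.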

IL-23R, sequence (Q5VWK5 24-629): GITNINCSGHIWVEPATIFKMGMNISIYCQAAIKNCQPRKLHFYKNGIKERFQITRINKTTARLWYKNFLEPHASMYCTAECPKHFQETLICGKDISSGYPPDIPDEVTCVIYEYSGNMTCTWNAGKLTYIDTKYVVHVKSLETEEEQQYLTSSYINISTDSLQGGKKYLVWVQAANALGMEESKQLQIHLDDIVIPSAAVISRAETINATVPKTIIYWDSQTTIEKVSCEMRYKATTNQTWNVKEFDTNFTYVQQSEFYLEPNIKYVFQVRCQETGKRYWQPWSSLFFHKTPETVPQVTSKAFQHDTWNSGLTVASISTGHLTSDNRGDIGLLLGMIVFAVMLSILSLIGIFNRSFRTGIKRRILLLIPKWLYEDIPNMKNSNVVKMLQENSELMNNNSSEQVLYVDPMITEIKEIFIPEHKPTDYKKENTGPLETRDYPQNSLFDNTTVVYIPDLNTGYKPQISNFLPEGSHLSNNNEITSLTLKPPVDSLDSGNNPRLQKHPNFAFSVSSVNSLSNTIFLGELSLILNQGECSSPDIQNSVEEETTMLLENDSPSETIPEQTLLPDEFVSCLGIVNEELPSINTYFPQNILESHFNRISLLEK

Structure (SMILES)	IC50
CC(=O)NCCCC[C@@H]1NC(=O)[C@H](Cc2c[nH]c3c(C)cccc23)NC(=O)[C@H]([C@@H](C)O)NC(=O)[C@H](CC(N)=O)NC(=O)[C@@H](N)C(C)(C)SSC(C)(C)[C@@H](C(=O)N[C@@H](Cc2ccc(OCCNC(=O)OC(C)(C)C)cc2)C(=O)N[C@@H](Cc2ccc3ccccc3c2)C(=O)N[C@@](C)(CCCCNC(=O)OC(C)(C)C)C(=O)N[C@@H](CCCCNC(C)=O)C(=O)N[C@@H](CC(N)=O)C(=O)N[C@@](C)(Cc2ccccc2)C(N)=O)NC1=O [Compound 304, NH2--Pen-N-T-7MeW-K(Ac)-Pen-AEF(Boc)-2Nal-aMeK(Boc)-K(Ac)-N-aMePhe-CONH2]	28 nM
CC(=O)NCCCC[C@@H]1NC(=O)[C@H](Cc2c[nH]c3c(C)cccc23)NC(=O)[C@H]([C@@H](C)O)NC(=O)[C@H](CC(N)=O)NC(=O)[C@@H](NC(C)=O)CSSC[C@@](C)(C(=O)N[C@@H](Cc2ccc(OCCN)cc2)C(=O)N[C@@H](Cc2ccc3ccccc3c2)C(=O)N[C@@](C)(CCCCN)C(=O)N[C@@H](CCCCNC(C)=O)C(=O)N[C@@H](CC(N)=O)C(=O)N[C@@](C)(Cc2ccccc2)C(N)=O)NC1=O [Compound 118, Ac-[Cys]-N-T-[W(7-Me)]-[Lys(Ac)]-[aMeCys]-Phe[4-(2-aminoethoxy)]-[2-Nal]-[a-MeLys]-[Lys(Ac)]-N-[a-MePhe]-NH2]	30 nM
CC(=O)N[C@H](CCCNC(=N)N)C(=O)N[C@H]1CCSC[C@@H](C(=O)N[C@@H](Cc2ccc(OCCN)cc2)C(=O)N[C@@H](Cc2ccc3ccccc3c2)C(=O)NC2(C(=O)N[C@@H](CCC(=O)O)C(=O)N[C@@H](CC(N)=O)C(=O)N[C@@H](Cc3ccccc3)C(N)=O)CCOCC2)NC(=O)[C@H](CCC(N)=O)NC(=O)[C@H](Cc2c[nH]c3ccccc23)NC(=O)[C@H]([C@@H](C)O)NC(=O)[C@H](CCC(N)=O)NC1=O [Compound 17, Ac-[(D)Arg]-[Abu]-Q-T-W-Q-[Cys]-Phe[4-(2-aminoethoxy)]-[2-Nal]-[THP]-E-N-F-NH2]	3.4 nM
CC(=O)NCCCC[C@@H]1NC(=O)[C@H](Cc2c[nH]c3c(C)cccc23)NC(=O)[C@H]([C@@H](C)O)NC(=O)[C@H](CC(N)=O)NC(=O)[C@@H](NC(=O)[C@@H](CCCNC(=N)N)NC(C)=O)C(C)(C)SSC(C)(C)[C@@H](C(=O)N[C@@H](Cc2ccc(OCCN)cc2)C(=O)N[C@@H](Cc2ccc3ccccc3c2)C(=O)NC2(C(=O)N[C@@H](CCC(=O)O)C(=O)N[C@@H](CC(N)=O)C(=O)N[C@@](C)(Cc3ccccc3)C(N)=O)CCOCC2)NC1=O [Compound 124, Ac-[(D)Arg]-[Pen]-N-T-[W(7-Me)]-[Lys(Ac)]-[Pen]-Phe[4-(2-aminoethoxy)]-[2-Nal]-[THP]-E-N-[a-MePhe]-NH2] (Ac-[dR][Pen]NT[Trp(7-Me)]K(Ac)[Pen][AEF][2Nal][Thp]EN[αMeF]-NH2; disulfide 2-7)	11 nM
CC(=O)N[C@H](CCCNC(=N)N)C(=O)N[C@@H]1C(=O)N[C@@H](CCC(N)=O)C(=O)N[C@@H]([C@@H](C)O)C(=O)N[C@@H](Cc2c[nH]c3ccccc23)C(=O)N[C@@H](CCC(N)=O)C(=O)N[C@H](C(=O)N[C@@H](Cc2ccc(OCCN)cc2)C(=O)N[C@@H](Cc2ccc3ccccc3c2)C(=O)NC2(C(=O)N[C@@H](CCCCNC(=O)C3CC3)C(=O)N[C@@H](CC(N)=O)C(=O)N[C@@H](Cc3ccccc3)C(N)=O)CCOCC2)C(C)(C)SSC1(C)C [Compound 55, Ac-[(D)Arg]-[Pen]-Q-T-W-Q-[Pen]-Phe[4-(2-aminoethoxy)]-[2-Nal]-[THP]-[Lys(COcPr)]-N-F-NH2] (Ac-[dR][Pen]QTWQ[Pen][AEF][2Nal][Thp]K(Cyclopropanecarbonyl)NF-NH2; disulfide 2-7)	25 nM
CC(=O)NCCCC[C@@H]1NC(=O)[C@H](Cc2c[nH]c3c(C)cccc23)NC(=O)[C@H]([C@@H](C)O)NC(=O)[C@H](CC(N)=O)NC(=O)[C@@H](NC(C)=O)C(C)(C)SSC(C)(C)[C@@H](C(=O)N[C@@H](Cc2ccc(OCCN)cc2)C(=O)N[C@@H](Cc2ccc3ccccc3c2)C(=O)NC2(C(=O)N[C@@H](CCCCNC(=O)C(F)(F)F)C(=O)N[C@@H](CC(N)=O)C(=O)NC3(C(N)=O)CCOCC3)CCOCC2)NC1=O [Compound 140, Ac-[Pen]-N-T-[W(7-Me)]-[Lys(Ac)]-[Pen]-Phe[4-(2-aminoethoxy)]-[2-Nal]-[THP]-[Lys(COCF3)]-N-[THP]-NH2]	2.6 nM
